Assay results published in patent US20120282296A1, “METHODS FOR IMPROVING THE DESIGN, BIOAVAILABILITY, AND EFFICACY OF DIRECTED SEQUENCE POLYMER COMPOSITIONS VIA SERUM PROTEIN-BASED DETECTION OF DIRECTED SEQUENCE POLYMER COMPOSITIONS” (ARES TRADING SA, priority 2009, published 2012).

Assays:
[1] = tested on: Ig fraction of rabbit polyserum; assay: ELISA with Ig fraction of rabbit polyserum; type: binding
[2] = various species, including man; cited from earlier work
[3] = tested on: CCL22; assay: Acute release of CCL22 (MDC) in serum or plasma after SC YEAK administration in mice; type: in vivo
[4] = YEAK in serum of mice after IV or SC dosing, detected by anti-YEAK ELISA; type: in vivo
[5] = tested on: monocyte cell line RAW264.7; assay: CCL22 release bioassay in the monocyte cell line RAW264.7; type: cell-based
Description: Following synthesis of different DSP compositions, for example by solid phase synthesis or by solution phase synthesis, the individual lots or batches made by the same manufacturing process, and individual batches of mixtures manufactured by different processes may be tested and compared for variation using bioassays. Depending on the indication of the DSP composition, appropriate bioassays include the release of CCL22 by the monocyte cell line RAW264.7, ex vivo proliferation assays, and measuring the binding of serum proteins to peptides in the DSP composition. Using these bioassays, one may determine subsets of peptides or even individual peptides that are present in any given process or lot. Processes and lots of DSP compositions will be compared to determine whether the same subsets of peptides and/or types of peptides are consistently represented across the different processes and lots.

[6] = mice dosed IV 4 mg/kg or SC 21 mg/kg, route for this value not stated

| Substance | interaction with / recognition by Ig fraction of rabbit polyserum [1] | persistence in serum after subcutaneous administration [2] | relation between dose administered SC and observed maximum CCL22 plasma concentration [3] | maximum serum concentration [4, 6] [ng/mL] | time of maximum serum concentration post dosing [4, 6] | detection in serum at 2 hours post-dosing ([4]; mice, 2 hours post-dosing) | CCL22 release by RAW264.7 cells [5] |
| --- | --- | --- | --- | --- | --- | --- | --- |
| glatiramer acetate [Copaxone] | interacts strongly | can be detected in serum of various species, including man, several hours after subcutaneous administration | linear correlation | 1800 | around 15 min | still detected | released CCL22 in a concentration dependent manner |
| plovamer [PI-2301] |  | can be detected in serum of various species, including man, several hours after subcutaneous administration |  |  |  |  |  |
